Measured values from patent EP0075139A1 (priority 1981, dated 1983).

Assays:
Phytophthora infestans = assay type: in vivo; settings: 0,025 %ige Spritzbrühe; potted tomato "Große Fleischtomate"; assessed 5 days after infection; value given as 'beispielsweise' (for example)
Plasmopara viticola = test: Efficacy against Plasmopara viticola on potted vine leaves (protective spray, greenhouse); assay type: in vivo; settings: 0,025 %ige Spritzbrühe; potted vines "Müller-Thurgau"; infected 10 days after spraying; value given as 'beispielsweise' (for example)
Text: Wirksamkeit gegen Plasmopara viticola
Blätter von Topfreben der Sorte "Müller-Thurgau" werden mit wäßriger Spritzbrühe, die 80 % Wirkstoff und 20 % Emulgiermittel in der Trockensubstanz enthält, besprüht. Um die Wirkungsdauer der Wirkstoffe beurteilen zu können, werden die Pflanzen nach dem Antrocknen des Spritzbelages 10 Tage im Gewächshaus aufgestellt. Erst dann werden die Blätter mit einer Zoosporenaufschwemmung von Plasmopara viticola (Rebenperonospora) infiziert. Danach werden die Reben zunächst für 16 Stunden in einer wasserdampfgesättigten Kammer bei 24°C und anschließend für 8 Tage in einem Gewächshaus mit Temperaturen zwischen 20 und 30 C aufgestellt. Nach dieser Zeit werden die Pflanzen zur Beschleunigung des Sporangienträgerausbruchs abermals für 16 Stunden in der feuchten Kammer aufgestellt. Dann erfolgt die Beurteilung des Ausmaßes des Pilzausbruches auf den Blattunterseiten.
Das Ergebnis des Versuches zeigt, daß beispielsweise die Verbindungen Nr. 1, 2, 11 und 12 bei Anwendung als 0,025 %ige Spritzbrühe eine bessere fungizide Wirkung (beispielsweise 100 %) zeigen als der bekannte Wirkstoff A (beispielsweise 90 %).

SMILES: S=C([S-])NCCNC(=S)[S-].[Zn+2] [Verbindung C, Zink-ethylen-1,2-bis-dithiocarbamat]
- fungizide Wirkung (Phytophthora infestans): 70%

SMILES: COC(=O)C(C)N(C(=O)C(C)=NOCc1c(Cl)cccc1Cl)c1c(C)cccc1C (stereo not drawn) [Verbindung Nr. 22, N-(2,6-Dimethyl-phenyl)-N-[(1-methoxycarbonyl)-1-ethyl]-2-[O-(2,6-dichlor-benzyl)-oximino]-brenztraubensäure-amid]
- fungizide Wirkung (Phytophthora infestans): 90%

SMILES: CC(=O)C(=O)N(c1c(C)ccc2ccccc12)C1CCOC1=O (stereo not drawn) [Verbindung Nr. 1, N-(2-Methyl-1-naphthyl)-N-(alpha-butyro--gamma-lactonyl)-brenztraubensäure-amid]
- fungizide Wirkung (Plasmopara viticola): 100%
- fungizide Wirkung (Phytophthora infestans): 90%

SMILES: O=C1c2ccccc2C(=O)N1SC(Cl)(Cl)Cl [Verbindung A, N-Trichlormethylthio-phthalimid]
- fungizide Wirkung (Plasmopara viticola): 90%

SMILES: O=C1C2CC=CCC2C(=O)N1SC(Cl)(Cl)Cl (stereo not drawn) [Verbindung B, N-Trichlormethylthio-tetrahydrophthalimid]
- fungizide Wirkung (Phytophthora infestans): 70%
